Earlier results in paper PMC3160894, “Isolation and Characterization of CvIV4: A Pain Inducing α- Scorpion Toxin” (PLoS ONE, 2011).

Test system: Nav1.7
Conditions: ref [19], [20]
Text: Given that buthid scorpions produce toxins that bind Na^+ channels in excitable membranes, it is plausible that their venom induces pain by initiating action potentials in nociceptors. Because some human pain disorders involve Na^+ channels expressed in nociceptors, [15], there has been an effort, albeit limited, to determine the components in buthid venom that induce pain with the goal of isolating peptides that discriminate among the DRG-expressed VGSCs. […] Because β-toxins make Na^+ channel ... || CvIV4 also slowed the fast inactivation and produced a persistent Na^+ current in rNav1.2, rNav1.3 and rNav1.4. […] Given that CvIV4 and CeII8 are similar in structure but differ in function and isoform selectivity, a comparison of these two toxins should improve our understanding of the structural characteristics that determine New World scorpion toxin selectivity and function.

Substance	Effect on fast inactivation of Nav1.7
AahII: α-toxin from Androctonus australis Hector; GenBank P01484	slow the fast inactivation of Nav1.7
LqhIII: α-toxin from Leiurus quinquestriatus hebraeus; GenBank P59355	slow the fast inactivation of Nav1.7
ODI: α-toxin from Odonthobuthus doriae; GenBank P84646	slow the fast inactivation of Nav1.7
